What was measured:
[1] = tested on: HCV replicon cells Huh 9B; format: cell-based; conditions: Huh 9B replicon cells, 72 h incubation, methylene blue absorbance at 620 nm
Description: (§1) HCV replicon cells Huh 9B (ReBlikon), containing the firefly luciferase—ubiquitin—neomycin phosphotransferase fusion protein and EMCV-IRES driven HCV polyprotein with cell culture adaptive mutations.
(§2) Cells were cultured at 37° C. in a 5% CO2 environment and split twice a week on seeding at 2×10E6 cells/flask on day 1 and 1×10E6 3 days later. Some 0.25 mg/ml G418 was added to the culture medium (125 ul per 25 ml) but not the assay medium.
(§3) The culture medium consisted of DMEM with […] glucose and glutamax (Gibco 61965-026) supplemented with 1× non-essential amino acids, penicillin (100 IU/ml)/streptomycin (100 μg/ml), FCS (10%, 50 ml) and 1 mg/ml G418 (Invitrogen cat no 10131-027) & 10% foetal calf serum.
(§4) A flask of cells was trypsinised and a cell count carried out. Cells were diluted to 100,000 cells/ml and 100 μl of this used to seed one opaque white 96-well plate (for the replicon assay) and one flat-bottomed clear plate (for the tox assay) for every seven compounds to be tested for IC50. Wells G12 and H12 were left empty in the clear plate as the blank. Plates were then incubated at 37° C. in a 5% CO2 environment for 24 h.
(§5) On the following day compound dilutions are made up in medium at twice their desired final concentration in a clear round bottomed plate. All dilutions have a final DMSO concentration of 1%.
(§6) Once the dilution plate had been made up, controls and compounds were transferred to the assay plate (containing the cells) at 100 μl /well in duplicate plates.
(§7) Exception: in the white (replicon) plate, no compound was added to wells A1 and A2 and 100 μl of 1% DMSO was added to these instead. In the clear (Tox) plate, wells E12 & F12 only contained the DMSO control. Plates were then incubated at 37° C. with 5% CO2 for 72 h.
The clear plate was stained with 100 μl 0.5% methylene blue in 50% ethanol at RT for 1 h, followed by solvation of the absorbed methylene blue in 100 μl per well of 1% lauroylsarcosine. Absorbance of the plate was measured on a microplate spectrophotometer (Molecular Devices) and the absorbance for each concentration of compound expressed as a proportion of the relative DMSO control. The TD50, the concentration of drug required to reduce the total cell area by 50% relative to the DMSO controls can be calculated by plotting the absorbance at 620 nm vs drug concentration.

[2] = tested on: HCV replicon cells Huh 9B; assay: HCV replicon luciferase assay; format: cell-based, hepatitis C virus; conditions: Huh 9B replicon cells, 72 h incubation, luciferase readout
Description: as §1, §2, §3, §4, §5, §6, §7
At the end of the incubation time, the cells in the white plate were harvested by washing with 200 μl/well of warn (37° C.) PBS and lysed with 20 μl cell culture lysis buffer (Promega). After 5 min incubation @ RT, luciferin solution was added to the luciferase assay buffer (LARB at 200 μl per 10 ml LARB. The M injector of the microplate luminometer (Lmax, Molecular Devices) was primed with […] injections. Plate were inserted into the luminometer and 100 μl luciferase assay reagent was added by the injector on the luminometer. The signal was measured using a 1 second delay followed by a 4 second measurement programme. The IC50, the concentration of the drug required for reducing the replicon level by 50% in relation to the untreated cell control value, can be calculated from the plot of the percentage reduction of the luciferase activity vs. drug concentration.

SMILES | Replicon TD5O [1] | IC50 ([2]; Hepatitis C virus) [nM] | IC50 [2] [nM]
c1nc(Nc2ccc(N3CCOCC3)cc2)c2cc(-c3ccc(OCCCN4CCOCC4)cc3)ccc2n1 [Example 2, (4-Morpholin-4-yl-phenyl)-{6-[4-(3-morpholin-4-yl-propoxy)-phenyl]-quinazolin-4-yl}-amine] | ** (>10 uM = **) | < 1000 | –
Fc1cc(-c2ccc3ncnc(Nc4ccc(N5CCOCC5)cc4)c3c2)ccc1OCCN1CCOCC1 [Example 5, {6-[3-Fluoro-4-(2-morpholin-4-yl-ethoxy)-phenyl]-quinazoline-4-yl}-(4-morpholin-4-yl-phenyl)-amine] | *** (>25 uM = ***) | < 1000 | –
CCOc1ccc(-c2ccc3ncnc(Nc4ccc(N5CCOCC5)cc4)c3c2)cc1OCC [Example 4] | ** (>10 uM = **) | – | < 1000
c1nc(Nc2ccc(N3CCOCC3)cc2)c2cc(-c3ccc(OCCN4CCOCC4)cc3)ccc2n1 [Example 1, {6-[4-(2-Morpholin-4-yl-ethoxy)-phenyl]-quinazolin-4-yl}-(4-morpholin-4-yl-phenyl)-amine] | *** (>25 uM = ***) | < 5000 | –
COc1ccc(-c2ccc3ncnc(Nc4ccc(N5CCOCC5)cc4)c3c2)cc1OC [Example 3, [6-(3,4-Dimethoxy-phenyl)-quinazolin-4-yl]-(4-morpholin-4-yl-phenyl)-amine] | ** (>10 uM = **) | < 1000 | –

From patent US20080267914A1, “Chemical Compounds” (priority 2005, published 2008)
